The source of these data is article PMC4932540, “Development of a New Radiofluorinated Quinoline Analog for PET Imaging of Phosphodiesterase 5 (PDE5) in Brain” (Pharmaceuticals, 2016).

pIC50: −log10 of the molar value.

The target of this experiment is T1, PDE5A1 (Homo sapiens, UniProt O76074).
T1 construct: gene PDE5A; human recombinant PDE5A1 protein
Kind of experiment: cAMP/cGMP-based PDE enzyme assay, recombinant protein. It counts as biochemical.

`CCc1cc(C#N)cc2c(NCc3ccc(OC)c(Cl)c3)c(COCCF)cnc12` [ICF24027, 4-[(3-Chloro-4-methoxybenzyl)amino]-8-ethyl-3-[(2-fluoroethoxy)methyl]quinoline-6-carbonitrile]: the pIC50 (commonly the IC50 on a negative log10 scale, so that one unit is a factor of ten) is 8.73.
